Among the test systems are SK-MEL-28 melanoma; 786-0 renal; HS 578T breast; OVCAR-3 ovarian; HL-60(TB) leukemia; SK-OV-3 ovarian; CAKI-1 renal; ACHN renal; COLO 205 colon; MDA-MB-231 breast.
Common to all, as to assay: growth of human tumour cells (NCI), 48 h

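Cultured in 96-well plates, cells were exposed to test compound for 48 hours across five concentrations. Here, GI50 denotes the concentration required for 50% inhibition of growth. TGI: concentration producing complete growth inhibition.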 Where a SMILES comes first, the peptide text is derived from it. The star is where a group is joined. Trt = c1ccc(C(c2ccccc2)(c2ccccc2)*)cc1; Cbz = O=C(OCc1ccccc1)*

Regarding `COC(=O)C(CSC(c1ccccc1)(c1ccccc1)c1ccccc1)NC(=O)C(CC(N)=O)NC(=O)OCc1ccccc1` (stereo not drawn) (Cbz-Asn-Cys(Trt)-OMe; configuration not given here), the GI50 in the assay with SK-MEL-28 melanoma was 3.42 µM; in the assay with 786-0 renal it was 3.44 µM; with HS 578T breast, 4.55 µM; in the assay with OVCAR-3 ovarian, 1.78 µM; in the assay on HL-60(TB) leukemia, 2.1 µM; in the assay on SK-OV-3 ovarian, 2.42 µM. Besides, the GI50 in the assay on CAKI-1 renal was 3.51 µM; with ACHN renal, 5.11 µM; in the assay on COLO 205 colon, 1.64 µM; in the assay with MDA-MB-231 breast, 2.93 µM. The TGI in the assay with SK-MEL-28 melanoma is 15.4 µM; in the assay on 786-0 renal, 12.6 µM; in the assay with HS 578T breast it was 26.5 µM; in the assay on OVCAR-3 ovarian, 4.67 µM; in the assay on HL-60(TB) leukemia it was 4.39 µM; in the assay with SK-OV-3 ovarian, 10.2 µM. Besides, the TGI in the assay with CAKI-1 renal was found to be 14.3 µM; with ACHN renal, 22.4 µM; with COLO 205 colon, 3.4 µM; in the assay with MDA-MB-231 breast, 10.9 µM.
Consider `O=C(/C=C/c1ccco1)c1ccc(Nc2nc(Nc3ccc(F)cc3)nc(Nc3ccc(F)cc3)n2)cc1`, for which the GI50 in the assay on SK-MEL-28 melanoma is 18.3 µM; in the assay on 786-0 renal it was 48.8 µM; with HS 578T breast, 22.8 µM; with OVCAR-3 ovarian, 16.9 µM; with HL-60(TB) leukemia, 17.5 µM; with SK-OV-3 ovarian, 32 µM. Moreover, the GI50 was 26.7 µM in the assay with CAKI-1 renal, above 100 µM in the assay with ACHN renal, 7.04 µM in the assay with COLO 205 colon and 23.7 µM in the assay with MDA-MB-231 breast. Further, the TGI in the assay on SK-MEL-28 melanoma is 44.3 µM; in the assay on 786-0 renal, above 100 µM; in the assay on HS 578T breast, 65 µM; with OVCAR-3 ovarian, 45.9 µM; in the assay with HL-60(TB) leukemia it was 52.9 µM; in the assay with SK-OV-3 ovarian it was above 100 µM. Also, the TGI was 60.5 µM in the assay with CAKI-1 renal, above 100 µM in the assay with ACHN renal, 26.1 µM in the assay on COLO 205 colon and above 100 µM in the assay on MDA-MB-231 breast.
Consider `Cc1ccc(S(=O)(=O)NC(CO)C(=O)O)cc1` (stereo not given), for which the TGI in the assay on SK-MEL-28 melanoma, in the assay on 786-0 renal, in the assay with HS 578T breast, in the assay on OVCAR-3 ovarian, in the assay with HL-60(TB) leukemia and with SK-OV-3 ovarian was above 100 µM each time. The TGI with CAKI-1 renal, with ACHN renal, with COLO 205 colon and with MDA-MB-231 breast was above 100 µM throughout.
Consider `CC(N1CCOCC1)C(O)(c1ccccc1)c1ccccn1` (stereo not given), for which the TGI with SK-MEL-28 melanoma, in the assay with 786-0 renal, in the assay on HS 578T breast, with OVCAR-3 ovarian, in the assay with HL-60(TB) leukemia and in the assay with SK-OV-3 ovarian was above 100 µM in each case. Moreover, the TGI with CAKI-1 renal, in the assay with ACHN renal, with COLO 205 colon and with MDA-MB-231 breast was above 100 µM throughout.
